Measurements from ChEMBL document CHEMBL1149623, “Identification of antibacterial and antiviral activities of novel fused 1,2,4-triazine esters” (2007).

Key:
Echovirus E9 [1] = assay: Antiviral activity against Human echovirus 9 in GMK cells assessed as virus titre at 200 ug/mL after 1 hr; type: functional
HEK293 [2] = assay: Cytotoxicity against human HEK293 cells at 100 ug/mL after 24 hrs by MTT assay; type: functional
HEK293 [3] = assay: Cytotoxicity against human HEK293 cells at 200 ug/mL after 24 hrs by MTT assay; type: functional
[4] = Cytotoxicity against monkey GMK cells at 5 ug/mL after 120 hrs by MTT assay; type: functional, Chlorocebus aethiops
HEK293 [5] = assay: Cytotoxicity against human HEK293 cells at 5 ug/mL after 24 hrs by MTT assay; type: functional
HEK293 [6] = assay: Cytotoxicity against human HEK293 cells at 25 ug/mL after 120 hrs by MTT assay; type: functional
HEK293 [7] = assay: Cytotoxicity against human HEK293 cells at 10 ug/mL after 24 hrs by MTT assay; type: functional
[8] = Cytotoxicity against monkey GMK cells at 25 ug/mL after 96 hrs by MTT assay; type: functional, Chlorocebus aethiops
HEK293 [9] = assay: Cytotoxicity against human HEK293 cells at 50 ug/mL after 120 hrs by MTT assay; type: functional
HEK293 [10] = assay: Cytotoxicity against human HEK293 cells at 25 ug/mL after 24 hrs by MTT assay; type: functional
[11] = Cytotoxicity against monkey GMK cells at 5 ug/mL after 72 hrs by MTT assay; type: functional, Chlorocebus aethiops
HEK293 [12] = assay: Cytotoxicity against human HEK293 cells at 200 ug/mL after 96 hrs by MTT assay; type: functional
HEK293 [13] = assay: Cytotoxicity against human HEK293 cells at 50 ug/mL after 72 hrs by MTT assay; type: functional
HEK293 [14] = assay: Cytotoxicity against human HEK293 cells at 5 ug/mL after 96 hrs by MTT assay; type: functional
[15] = Cytotoxicity against monkey GMK cells at 50 ug/mL after 120 hrs by MTT assay; type: functional, Chlorocebus aethiops
[16] = Cytotoxicity against monkey GMK cells at 2.5 ug/mL after 120 hrs by MTT assay; type: functional, Chlorocebus aethiops
[17] = Cytotoxicity against monkey GMK cells at 25 ug/mL after 48 hrs by MTT assay; type: functional, Chlorocebus aethiops
HEK293 [18] = assay: Cytotoxicity against human HEK293 cells at 100 ug/mL after 48 hrs by MTT assay; type: functional
HEK293 [19] = assay: Cytotoxicity against human HEK293 cells at 100 ug/mL after 120 hrs by MTT assay; type: functional
[20] = Cytotoxicity against monkey GMK cells at 5 ug/mL after 24 hrs by MTT assay; type: functional, Chlorocebus aethiops
[21] = Cytotoxicity against monkey GMK cells at 5 ug/mL after 48 hrs by MTT assay; type: functional, Chlorocebus aethiops
HEK293 [22] = assay: Cytotoxicity against human HEK293 cells at 25 ug/mL after 96 hrs by MTT assay; type: functional
[23] = Cytotoxicity against monkey GMK cells at 200 ug/mL after 72 hrs by MTT assay; type: functional, Chlorocebus aethiops
Echovirus E9 [24] = assay: Antiviral activity against Human echovirus 9 in GMK cells assessed as virus titre at 50 ug/mL after 1 hr; type: functional
HEK293 [25] = assay: Cytotoxicity against human HEK293 cells at 2.5 ug/mL after 72 hrs by MTT assay; type: functional
HEK293 [26] = assay: Cytotoxicity against human HEK293 cells at 50 ug/mL after 96 hrs by MTT assay; type: functional
HEK293 [27] = assay: Cytotoxicity against human HEK293 cells at 50 ug/mL after 48 hrs by MTT assay; type: functional
[28] = Cytotoxicity against monkey GMK cells at 10 ug/mL after 72 hrs by MTT assay; type: functional, Chlorocebus aethiops
HEK293 [29] = assay: Cytotoxicity against human HEK293 cells at 100 ug/mL after 72 hrs by MTT assay; type: functional
[30] = Cytotoxicity against monkey GMK cells at 25 ug/mL after 24 hrs by MTT assay; type: functional, Chlorocebus aethiops
[31] = Cytotoxicity against monkey GMK cells at 10 ug/mL after 48 hrs by MTT assay; type: functional, Chlorocebus aethiops
[32] = Cytotoxicity against monkey GMK cells at 100 ug/mL after 72 hrs by MTT assay; type: functional, Chlorocebus aethiops
[33] = Cytotoxicity against monkey GMK cells at 10 ug/mL after 120 hrs by MTT assay; type: functional, Chlorocebus aethiops
HEK293 [34] = assay: Cytotoxicity against human HEK293 cells at 200 ug/mL after 120 hrs by MTT assay; type: functional
HEK293 [35] = assay: Cytotoxicity against human HEK293 cells at 2.5 ug/mL after 48 hrs by MTT assay; type: functional
HEK293 [36] = assay: Cytotoxicity against human HEK293 cells at 50 ug/mL after 24 hrs by MTT assay; type: functional
Human adenovirus 5 = assay: Antiviral activity against Human adenovirus 5 in HEK293 cells assessed as virus titre at 50 ug/mL after 1 hr; type: functional
[37] = Cytotoxicity against monkey GMK cells at 50 ug/mL after 96 hrs by MTT assay; type: functional, Chlorocebus aethiops
[38] = Cytotoxicity against monkey GMK cells at 50 ug/mL after 24 hrs by MTT assay; type: functional, Chlorocebus aethiops
HEK293 [39] = assay: Cytotoxicity against human HEK293 cells at 2.5 ug/mL after 24 hrs by MTT assay; type: functional
HEK293 [40] = assay: Cytotoxicity against human HEK293 cells at 200 ug/mL after 72 hrs by MTT assay; type: functional
[41] = Cytotoxicity against monkey GMK cells at 200 ug/mL after 48 hrs by MTT assay; type: functional, Chlorocebus aethiops
Echovirus E9 [42] = assay: Antiviral activity against Human echovirus 9 in GMK cells assessed as virus titre at 100 ug/mL after 1 hr; type: functional
HEK293 [43] = assay: Cytotoxicity against human HEK293 cells at 200 ug/mL after 48 hrs by MTT assay; type: functional
HEK293 [44] = assay: Cytotoxicity against human HEK293 cells at 10 ug/mL after 48 hrs by MTT assay; type: functional
[45] = Cytotoxicity against monkey GMK cells at 100 ug/mL after 96 hrs by MTT assay; type: functional, Chlorocebus aethiops
HEK293 [46] = assay: Cytotoxicity against human HEK293 cells at 25 ug/mL after 48 hrs by MTT assay; type: functional
HEK293 [47] = assay: Cytotoxicity against human HEK293 cells at 2.5 ug/mL after 120 hrs by MTT assay; type: functional
[48] = Cytotoxicity against monkey GMK cells at 2.5 ug/mL after 48 hrs by MTT assay; type: functional, Chlorocebus aethiops
HEK293 [49] = assay: Cytotoxicity against human HEK293 cells at 5 ug/mL after 120 hrs by MTT assay; type: functional
[50] = Cytotoxicity against monkey GMK cells at 2.5 ug/mL after 96 hrs by MTT assay; type: functional, Chlorocebus aethiops
[51] = Cytotoxicity against monkey GMK cells at 25 ug/mL after 120 hrs by MTT assay; type: functional, Chlorocebus aethiops
[52] = Cytotoxicity against monkey GMK cells at 100 ug/mL after 120 hrs by MTT assay; type: functional, Chlorocebus aethiops
[53] = Cytotoxicity against monkey GMK cells at 5 ug/mL after 96 hrs by MTT assay; type: functional, Chlorocebus aethiops
HEK293 [54] = assay: Cytotoxicity against human HEK293 cells at 10 ug/mL after 96 hrs by MTT assay; type: functional
[55] = Cytotoxicity against monkey GMK cells at 10 ug/mL after 96 hrs by MTT assay; type: functional, Chlorocebus aethiops
[56] = Cytotoxicity against monkey GMK cells at 2.5 ug/mL after 24 hrs by MTT assay; type: functional, Chlorocebus aethiops

## COC(=O)CC1NN=C2N(CCN2c2cccc(Cl)c2)C1=O (configuration not stated)
Echovirus E9 [1]
  TCID50: 3.33 mL⁻¹
HEK293 [2]
  Activity: 98%
HEK293 [3]
  Activity: 98%
[4]
  Activity: 100%
HEK293 [5]
  Activity: 100%
HEK293 [6]
  Activity: 95%
HEK293 [7]
  Activity: 100%
[8]
  Activity: 95%
HEK293 [9]
  Activity: 90%
HEK293 [10]
  Activity: 100%
[11]
  Activity: 100%
HEK293 [12]
  Activity: 35%
HEK293 [13]
  Activity: 95%
HEK293 [14]
  Activity: 100%
[15]
  Activity: 90%
[16]
  Activity: 100%
[17]
  Activity: 100%
HEK293 [18]
  Activity: 50%
HEK293 [19]
  Activity: 50%
[20]
  Activity: 100%
[21]
  Activity: 100%
HEK293 [22]
  Activity: 95%
[23]
  Activity: 20%
Echovirus E9 [24]
  TCID50: 3.33 mL⁻¹
HEK293 [25]
  Activity: 100%
HEK293 [26]
  Activity: 90%
HEK293 [27]
  Activity: 95%
[28]
  Activity: 100%
HEK293 [29]
  Activity: 55%
[30]
  Activity: 100%
[31]
  Activity: 100%
[32]
  Activity: 20%
[33]
  Activity: 100%
HEK293 [34]
  Activity: 30%
HEK293 [35]
  Activity: 100%
HEK293 [36]
  Activity: 95%
Human adenovirus 5
  TCID50: 3.5 mL⁻¹
[37]
  Activity: 90%
[38]
  Activity: 100%
HEK293 [39]
  Activity: 100%
HEK293 [40]
  Activity: 35%
[41]
  Activity: 10%
Echovirus E9 [42]
  TCID50: 3 mL⁻¹
HEK293 [43]
  Activity: 40%
HEK293 [44]
  Activity: 100%
[45]
  Activity: 0%
HEK293 [46]
  Activity: 100%
HEK293 [47]
  Activity: 100%
[48]
  Activity: 100%
HEK293 [49]
  Activity: 100%
[50]
  Activity: 100%
[51]
  Activity: 95%
[52]
  Activity: 0%
[53]
  Activity: 100%
HEK293 [54]
  Activity: 100%
[55]
  Activity: 100%
[56]
  Activity: 100%
